Measured values from EP1299350B1, “SUBSTITUTED BENZAMIDES FOR IMMUNE ENHANCEMENT AND FOR THE TREATMENT OF CANCER, INFECTION AND MANIC-DEPRESSIVE ILLNESS” (Active Biotech AB, priority 2000, dated 2002).

System: AP-1
Assay: AP-1-driven luciferase reporter gene assay in Jurkat T cell line (Jurkat/AP-1rep), stimulated with phorbol myristate acetate and ionomycin
Type: cell-based
Details: Jurkat/AP-1rep cells stimulated for 5.5 h at 37°C with phorbol myristate acetate and ionomycin; luciferase luminescence; Figure 1
Description: The compounds of general formula (I) were assayed for AP-1 enhancement. The compounds of this invention were tested in assays for the modulation of stimulated activity of an AP-1-driven reporter gene in the Jurkat T cell line. The activation of this reporter gene results in luciferase production and the amounts of produced luciferase parallels the level of AP-1 activity. A high level of AP-1 activity is pivotal to e.g. high production of IL-2.
Cells from the Jurkat T cell line were transfected with an AP-1-driven luciferase gene reporter construct (Parra et al., 1997) together with a selection gene vector. Selected clones from the resulting stable AP-1 reporter gene transfectants were used in the assays for AP-1 transcription factor activity. These transfected Jurkat cells (Jurkat/AP-1rep) were grown in RPMI 1640 supplemented with glutamine, hepes, sodium pyruvate, gentamicin, 10% FCS and G418. To evaluate distinct compounds for their capacity to enhance the AP-1 activity, Jurkat/AP-1rep cells were stimulated for 5.5 h in the temperature of 37°C with phorbol myristate acetate and ionomycin in the absence and presence of test compounds. The 96 well plates containing the cell cultures were then put on ice until harvested. […] AP-1 activity was measured as luminiscence produced by luciferase substrate, which was added to the wells in conjunction with measurement.

CCN(CC)CCCNC(=O)c1ccc(NC(=O)C(C)C)cc1OC [Compound A, N-[(3-diethylamino)propyl]-4-isobutyrylamino-2-methoxybenzamide]
activity of the AP-1 driven reporter: enhance the activity of the AP-1 driven reporter in a dose dependent fashion down to µM concentrations
